# Data taken from patent publication US6071905A, “Biologically active substance on the basis of tetracyclic nitrogen heterocycles of pyrimidine row” (Natural Drug Sciences, LLC, priority 1998, dated 2000).
# Test system: M. tuberculosis 16R
# Assay: action on pathogenic mycobacteria from patients, Lowenstein-Jensen medium, M. tuberculosis 16R
# Format: cell-based
# Settings: title: concentration of compound 10.0 g/l; 30 days; resistant to control compounds
row,SMILES,"antimicrobial action, M. tuberculosis 16R"
1,"[H]/N=C(/N)N[C@H]1[C@H](O)[C@@H](O)[C@H](O[C@@H]2O[C@@H](C)[C@](O)(C=O)[C@H]2O[C@@H]2O[C@@H](CO)[C@H](O)[C@@H](O)[C@@H]2NC)[C@@H](N/C(N)=N\[H])[C@@H]1O [Streptomycin, reference compound]",growth
2,"CC[C@@H](CO)NCCN[C@@H](CC)CO [Ethambutol, reference compound]",growth
3,"NNC(=O)c1ccncc1 [Isoniazid, hydrazide of izonicotinic acid, reference compound]",growth
4,"CO[C@H]1/C=C/O[C@@]2(C)Oc3c(C)c(O)c4c(O)c(cc(O)c4c3C2=O)NC(=O)/C(C)=C\C=C\[C@H](C)[C@H](O)[C@@H](C)[C@@H](O)[C@@H](C)[C@H](OC(C)=O)[C@@H]1C [Rifamycin, reference compound]",growth
